From patent publication US20120214862A1, “MODULATION OF FACTOR 7 EXPRESSION” (ISIS Pharmaceuticals, Inc., priority 2009, published 2012)
e = 2'-O-(2-methoxyethyl) (MOE); d = 2'-deoxy (DNA)

Legend:
murine Factor 7 mRNA = test: Liver Factor 7 mRNA by real-time RT-PCR in treated BALB/c mice; type: in vivo, mouse; settings: for % inhibition of murine Factor 7 mRNA: BALB/c liver; for % inhibition of murine Factor 7 mRNA / % inhibition of Factor 7 mRNA: relative to PBS control; for % inhibition of Factor 7 mRNA: liver; for % inhibition of Factor 7 mRNA (liver): mice
Method: A control group of mice was injected subcutaneously with PBS twice a week for 3 weeks. After the treatment period, whole liver was collected for RNA and protein analysis, and plasma was collected for clotting analysis (PT/aPTT).
(§1) RNA was extracted from liver tissue for real-time RT-PCR analysis of Factor 7.
A control group of 3 mice was injected with a single dose of PBS, and mice in this group were sacrificed on day 1. Mice in all groups were sacrificed by cervical dislocation following anesthesia with 150 mg/kg ketamine mixed with 10 mg/kg xylazine administered by intraperitoneal injection. Liver was harvested for RNA analysis and plasma was collected for clotting analysis (PT and aPTT).
as §1
Mice from the first group were sacrificed on days 1 and 3 after the single dose. […] A control group of 3 mice was injected with PBS in a single dose. Mice from the control group were sacrificed 1 day later. Mice in all groups were sacrificed by cervical dislocation following anesthesia with 150 mg/kg ketamine mixed with 10 mg/kg xylazine administered by intraperitoneal injection. Liver was harvested for RNA analysis and plasma was collected for clotting analysis (PT and aPTT) for mice in all groups.
RNA was extracted from liver tissue for quantitative RT-PCR analysis of Factor 7.
Two control groups of BALB/c mice were treated with PBS, administered subcutaneously twice a week for 3 weeks. Thrombus formation was induced with FeCl3 in half of the mice while the rest of the mice were assayed for tail bleeding. […] Thrombus formation was induced with FeCl3 in all groups of the VT mice except the first control group.
as §1
A fifth group of BALB/c mice was treated with 3 mg/kg of warfarin, administered intraperioneally daily for 6 days. Four hours after the last dose of warfarin, mice were sacrificed. A control group of BALB/c mice were treated with PBS, administered subcutaneously twice a week for 3 weeks. Two days after the last dose of PBS, mice were anesthetized with 150 mg/kg ketamine mixed with 10 mg/kg xylazine administered by intraperitoneal injection. Thrombus formation was induced with FeCl3 in groups of mice except the first control group.

murine Factor 7 protein = test: Plasma Factor 7 protein, Factor 7 chromogenic assay (Hyphen BioMed), BALB/c mice; type: in vivo, mouse; settings: for % inhibition of murine Factor 7 protein (plasma): relative to PBS control
Method: BALB/c mice were treated with ISIS 403102 ([…], target site 11336, incorporated herein as SEQ ID NO: 161). BALB/c mice were injected subcutaneously with 5 mg/kg, 10 mg/kg, 25 mg/kg, or 50 mg/kg of ISIS 403102 twice a week for 3 weeks. A control group of mice was injected subcutaneously with PBS twice a week for 3 weeks. After the treatment period, whole liver was collected for RNA and protein analysis, and plasma was collected for clotting analysis (PT/aPTT).
Plasma Factor 7 protein was measured using a Factor 7 chromogenic assay (Hyphen BioMed). […] Results are presented as percent inhibition of Factor 7, relative to control.

[1] = single dose 50 mg/kg, BALB/c mice

CCATAGAACAGCTTCACAGG (sugars from the 5' end e5 d10 e5, backbone and methylation of C not given here) [ISIS 403102]
% inhibition of murine Factor 7 mRNA (murine Factor 7 mRNA; 5 mg/kg sc twice a week for 3 weeks): 64%
% inhibition of murine Factor 7 mRNA (murine Factor 7 mRNA; 10 mg/kg sc twice a week for 3 weeks): 84%
% inhibition of murine Factor 7 mRNA (murine Factor 7 mRNA; 25 mg/kg sc twice a week for 3 weeks): 96%
% inhibition of murine Factor 7 mRNA (murine Factor 7 mRNA; 50 mg/kg sc twice a week for 3 weeks): 99%
reduction of murine Factor 7 (liver mRNA) over PBS control (murine Factor 7 mRNA; 5-50 mg/kg sc twice a week for 3 weeks, BALB/c mice): dose-dependent reduction
% Inhibition of murine Factor 7 mRNA (liver) (murine Factor 7 mRNA; BALB/c mice, single dose 50 mg/kg, day 1): 61%
% Inhibition of murine Factor 7 mRNA (liver) (murine Factor 7 mRNA; BALB/c mice, single dose 50 mg/kg, day 2): 87%
% Inhibition of murine Factor 7 mRNA (liver) (murine Factor 7 mRNA; BALB/c mice, single dose 50 mg/kg, day 3): 92%
% Inhibition of murine Factor 7 mRNA (liver) (murine Factor 7 mRNA; BALB/c mice, single dose 50 mg/kg, day 4): 92%
% Inhibition of murine Factor 7 mRNA (liver) (murine Factor 7 mRNA; BALB/c mice, single dose 50 mg/kg, day 6): 86%
% Inhibition of murine Factor 7 mRNA (liver) (murine Factor 7 mRNA; BALB/c mice, single dose 50 mg/kg, day 8): 80%
% Inhibition of murine Factor 7 mRNA (liver) (murine Factor 7 mRNA; BALB/c mice, single dose 50 mg/kg, day 12): 72%
% Inhibition of murine Factor 7 mRNA (liver) (murine Factor 7 mRNA; BALB/c mice, single dose 50 mg/kg, day 24): 11%
% Inhibition of murine Factor 7 mRNA (liver) (murine Factor 7 mRNA; BALB/c mice, single dose 50 mg/kg, day 56): 0%
Factor 7 inhibition over time (murine Factor 7 mRNA; Example 13, 6 doses of 25 mg/kg sc, days 14, 28, 42 and 56 after last dose): declined progressively
inhibition of Factor 7 mRNA, onset (murine Factor 7 mRNA; Example 13, single dose 25 mg/kg sc): inhibition of Factor 7 as early as day 1
reduction of Factor 7 mRNA in comparison to the PBS control (murine Factor 7 mRNA; Example 14, 25, 37.5 or 50 mg/kg sc twice a week for 3 weeks, FeCl3 VT model): significant dose-dependent reduction
reduction of Factor 7 mRNA in comparison to the PBS control (murine Factor 7 mRNA; Example 15, 5-40 mg/kg sc twice a week for 3 weeks): significant dose-dependent reduction
% inhibition of Factor 7 mRNA (murine Factor 7 mRNA; BALB/c mice, FeCl3 VT model (Example 15), 5 mg/kg s.c. twice a week for 3 weeks): 59%
% inhibition of Factor 7 mRNA (murine Factor 7 mRNA; BALB/c mice, FeCl3 VT model (Example 15), 10 mg/kg s.c. twice a week for 3 weeks): 84%
% inhibition of Factor 7 mRNA (murine Factor 7 mRNA; BALB/c mice, FeCl3 VT model (Example 15), 20 mg/kg s.c. twice a week for 3 weeks): 95%
% inhibition of Factor 7 mRNA (murine Factor 7 mRNA; BALB/c mice, FeCl3 VT model (Example 15), 40 mg/kg s.c. twice a week for 3 weeks): 99%
% inhibition of Factor 7 mRNA (murine Factor 7 mRNA; BALB/c mice, FeCl3 VT model, 25 mg/kg s.c. twice a week for 3 weeks): 24%
% inhibition of Factor 7 mRNA (murine Factor 7 mRNA; BALB/c mice, FeCl3 VT model, 37.5 mg/kg s.c. twice a week for 3 weeks): 74%
% inhibition of Factor 7 mRNA (murine Factor 7 mRNA; BALB/c mice, FeCl3 VT model, 50 mg/kg s.c. twice a week for 3 weeks): 69%
% inhibition of Factor 7 mRNA (liver) (murine Factor 7 mRNA; 25 mg/kg s.c. twice a week, 2 doses, 3 days after last dose): 86%
% inhibition of Factor 7 mRNA (liver) (murine Factor 7 mRNA; 25 mg/kg s.c. twice a week, 4 doses, 3 days after last dose): 91%
% inhibition of Factor 7 mRNA (liver) (murine Factor 7 mRNA; 25 mg/kg s.c. twice a week, 6 doses, 2 days after last dose): 83%
% inhibition of Factor 7 mRNA (liver) (murine Factor 7 mRNA; 25 mg/kg s.c. twice a week, 6 doses, 7 days after last dose): 88%
% inhibition of Factor 7 mRNA (liver) (murine Factor 7 mRNA; 25 mg/kg s.c. twice a week, 6 doses, 14 days after last dose): 64%
% inhibition of Factor 7 mRNA (liver) (murine Factor 7 mRNA; 25 mg/kg s.c. twice a week, 6 doses, 28 days after last dose): 33%
% inhibition of Factor 7 mRNA (liver) (murine Factor 7 mRNA; 25 mg/kg s.c. twice a week, 6 doses, 42 days after last dose): 5%
% inhibition of Factor 7 mRNA (liver) (murine Factor 7 mRNA; 25 mg/kg s.c. twice a week, 6 doses, 56 days after last dose): 11%
% inhibition of Factor 7 mRNA (liver) (murine Factor 7 mRNA; 25 mg/kg s.c., 1 dose, 1 day after last dose): 44%
% inhibition of Factor 7 mRNA (liver) (murine Factor 7 mRNA; 25 mg/kg s.c., 1 dose, 3 days after last dose): 74%
duration of action (murine Factor 7 mRNA; [1]): at least 24 days
peak effect of a single dose occurs on (murine Factor 7 mRNA; [1]): ~4 days
inhibition of Factor 7 mRNA (murine Factor 7 mRNA; single dose 50 mg/kg, day 4): 92%
inhibition of Factor 7 mRNA (murine Factor 7 mRNA; single dose 50 mg/kg, day 24): 11%
Factor 7 mRNA levels (murine Factor 7 mRNA; single dose 50 mg/kg, day 56): equal to that of the PBS control
% inhibition of murine Factor 7 protein (plasma) (murine Factor 7 protein; 5 mg/kg s.c. twice a week for 3 weeks): 71%
% inhibition of murine Factor 7 protein (plasma) (murine Factor 7 protein; 10 mg/kg s.c. twice a week for 3 weeks): 88%
% inhibition of murine Factor 7 protein (plasma) (murine Factor 7 protein; 25 mg/kg s.c. twice a week for 3 weeks): 99%
% inhibition of murine Factor 7 protein (plasma) (murine Factor 7 protein; 50 mg/kg s.c. twice a week for 3 weeks): 99%
reduction of murine Factor 7 protein over PBS control (murine Factor 7 protein; 5-50 mg/kg sc twice a week for 3 weeks, plasma): dose-dependent reduction
